Results: US20200107549A1, “Enhancement of seed germination and plant growth under conditions of stress with pterostilbene, ellagic acid, nicotinamide riboside, and their combinations” (priority 2018, published 2020)

Test system: rice seeds
Test: rice seed germination in artificial paddy
Type: in vivo, Oryza sativa (Rice)
Settings: seeds incubated in 1 micromolar NR; water deprivation paddy, 37 seeds; only 1 seed germinated in that paddy's control
Procedure: Conditions of “water deprivation” in this specification refers to the administration of less water than required for a seed to germinate typically. In the experiments described below, seeds subjected to a condition of “water deprivation” were given 2 mL of water 3 times a week, as opposed to 5 mL. In the rice experiment, the seeds subjected to “water deprivation” were not given any water after their planting in the artificial paddy. 5 mL of the solutions of the 3 compounds or combinations was placed in a small size weigh boats, along with water as the control. Up to 50 seeds were placed in the weigh boats. Incubation periods ranged from 18-24 hours at room temperature (recorded range of 55-65° F.). The seeds were then either placed in a germination chamber or planted in potting soil, as described below. For the rice plants, an artificial paddy field was built using two plastic bins filled with soil, and filled with water to a depth of 4 inches. A divider comprising of sticks was placed to delineate the experimental conditions comparing water soaked seeds or NR soaked seeds. In one paddy, water was replenished until germination was observed; the other received no added water. The bins were left outside for a total of 6 weeks; the daily temperatures ranged between 50 F to 95 F, and no rainfall was recorded during the experimental period. […]

NC(=O)c1ccc[n+]([C@@H]2O[C@H](CO)[C@@H](O)[C@H]2O)c1 [NR, Nicotinamide riboside]
seeds germinated: 32%
